The conditions of this series: polymer system of polydimethylsiloxane vinyl terminated at various viscosity and platinum-mono, di, tri and/or tetramethyldisiloxane complex.

Molecules are shown by their SMILES.

Description: These components may be combined in different ratios to make the polymer. […] The amount of vinyl siloxane cross-linker may determine the rate of the drug release and diffusivity of the polymer to the drug.

As for `CC(=O)O[C@H]1C(=O)[C@@]2(C)[C@H]([C@H](OC(=O)c3ccccc3)[C@]3(O)C[C@H](OC(=O)[C@H](O)[C@@H](NC(=O)c4ccccc4)c4ccccc4)C(C)=C1C3(C)C)[C@]1(OC(C)=O)CO[C@@H]1C[C@@H]2O` [paclitaxel], the release profile result is given as “acceptable”.
